From patent US10414759B2, “Phenylthiazoles and uses thereof” (Purdue Research Foundation, priority 2017, dated 2019)
≈ marks a conversion by molar mass, not a printed value.

Tests used:
MRSA (2658 RCMB) = assay: MIC against MRSA (2658 RCMB), broth dilution; format: cell-based, Staphylococcus aureus; details: Staphylococcus aureus; Table 7; initial screening, MRSA (2658 RCMB); read-out: minimum inhibitory concentration (MIC)
Procedure: Bacteria were cultured in cation-adjusted Mueller Hinton broth in a 96-well plate. Compounds, using triplicate samples, were added to the plate and serially diluted. […] Plates were visually inspected and the MIC was categorized as the concentration at which no visible growth of bacteria was observed. The average of triplicate MIC determinations is reported.
(§1) A bacterial solution equivalent to 0.5 McFarland standard was prepared and diluted in cation-adjusted Mueller-Hinton broth (CAMHB) to achieve a bacterial concentration of about 5×10^5 CFU/mL and seeded in 96-well plates. Enterococcus faecium was diluted in brain heart infusion broth. Enterococcus faecalis, Streptococcus pneumonia and Listeria monocytogenes were diluted in tryptone soya broth (TSB).

[1] = tested on: human colorectal (Caco-2) cell; assay: In vitro cytotoxicity against Caco-2 cells (MTS); format: cell-based; details: at 32 μg/mL
Procedure: Tested compounds were assayed (at concentrations of 16, 32, and 64 μg/mL) against a human colorectal (Caco-2) cell to determine the potential toxic effect to mammalian cells in vitro. Briefly, cells were cultured in Dulbecco's Modified Eagle Medium (DMEM) supplemented with 20% fetal bovine serum (FBS), non-essential amino acids (1×), and penicillin-streptomycin at 37° C. with CO2 (5%). Control cells received DMSO alone at a concentration equal to that in drug-treated cell samples. The cells were incubated with the compounds (in triplicate) in a 96-well plate at 37° C. with CO2 (5%) for two hours. The assay reagent MTS 3-(4,5-dimethylthiazol-2-yl)-5-(3-carboxymethoxyphenyl)-2-(4-sulfophenyl)-2H-tetrazolium) (Promega, Madison, Wis., USA) was subsequently added and the plate was incubated for four hours. Absorbance readings (at OD490) were taken using a kinetic microplate reader (Molecular Devices, Sunnyvale, Calif., USA). The quantity of viable cells after treatment with each compound was expressed as a percentage of the viability of DMSO-treated control cells (average of triplicate wells±standard deviation). The toxicity data was analyzed via a two-way ANOVA, with post hoc Sidak's multiple comparisons test (P<0.05), utilizing GraphPad Prism 6.0 (GraphPad Software, La Jolla, Calif.).

[2] = tested on: Enterococcus faecium ATCC 700221 (VRE); assay: MIC/MBC Gram-positive pathogens (Table 9); format: cell-based; details: Table 9; Enterococcus faecium ATCC 700221 (VRE); read-out: MIC
Procedure: (§2) The minimum inhibitory concentration (MIC) of tested compounds and control antibiotics were determined using the broth microdilution method in accordance with the recommendations contained in the Clinical and Laboratory Standards Institute guidelines, against methicillin-sensitive (ATCC 6538 and NRS107), methicillin-resistant (MRSA), and vancomycin-resistant (VRSA) Staphylococcus aureus, Staphylococcus epidermidis, Enterococcus faecalis, E. faecium, Listeria monocytogenes, and Streptococcus pneumoniae clinical isolates. A bacterial solution equivalent to 0.5 McFarland standard was prepared and diluted in cation-adjusted Mueller-Hinton broth (CAMHB) to achieve a bacterial concentration of about 5×10^5 CFU/mL and seeded in 96-well plates. Enterococcus faecium was diluted in brain heart infusion broth. Enterococcus faecalis, Streptococcus pneumonia and Listeria monocytogenes were diluted in tryptone soya broth (TSB). Compounds and control drugs were added in the first row of 96-well plates and serially diluted (to achieve a concentration gradient ranging from 128 to 1 μg/mL). Plates were then incubated aerobically at 37° C. for at least 18 hours. The minimum bactericidal concentration (MBC) of the active compounds was tested by plating 5 μL from wells with no growth onto Tryptic soy agar (TSA) plates.

S. aureus ATCC 6538 = assay: MIC/MBC S. aureus strains (Table 8); format: cell-based; details: Staphylococcus aureus, ATCC6538
Procedure: as §1

MRSA NRS386 = assay: MIC/MBC S. aureus strains (Table 8); format: cell-based; details: Staphylococcus aureus
Procedure: as §1

MRSA NRS385 = assay: MIC/MBC S. aureus strains (Table 8); format: cell-based; details: Staphylococcus aureus
Procedure: as §1

MRSA NRS384 (USA300) = assay: MIC/MBC S. aureus strains (Table 8); format: cell-based; details: Staphylococcus aureus
Procedure: as §1

MRSA NRS123 (USA400) = assay: MIC/MBC S. aureus strains (Table 8); format: cell-based; details: Staphylococcus aureus
Procedure: as §1

MRSA NRS119 = assay: MIC/MBC S. aureus strains (Table 8); format: cell-based; details: Staphylococcus aureus
Procedure: as §1

S. aureus NRS107 = assay: MIC/MBC S. aureus strains (Table 8); format: cell-based, Staphylococcus aureus; details: Staphylococcus aureus; Table 8; S. aureus NRS107
Procedure: as §1

MRSA (USA300) = assay: Time-kill assay; format: cell-based, Staphylococcus aureus; details: 3.0×MIC
Procedure: Aliquots (100 μL) were taken from each sample after 2, 4, 6, 8, 10, 12, and 24 hours, serially diluted in phosphate-buffered saline, and transferred to Trypticase soy agar (TSA) (Becton, Dickinson and Company, Sparks, Md., USA) plates. Plates were incubated at 37° C. for at least 16 hours before counting viable CFU/mL to determine the time required to reduce the bacterial cell count by 3-log10.

VRS10 (VRSA) = assay: MIC/MBC S. aureus strains (Table 8); format: cell-based; details: Staphylococcus aureus, Table 8, VRS10 (VRSA)
Procedure: as §2

VRS12 (VRSA) = assay: MIC/MBC S. aureus strains (Table 8); format: cell-based; details: Staphylococcus aureus, Table 8, VRS12 (VRSA)
Procedure: as §2

[3] = tested on: Methicillin-resistant Staphylococcus epidermidis NRS101; assay: MIC/MBC Gram-positive pathogens (Table 9); format: cell-based
Procedure: as §1

[4] = tested on: Enterococcus faecalis ATCC 51299 (VRE); assay: MIC/MBC Gram-positive pathogens (Table 9); format: cell-based; details: Table 9; Enterococcus faecalis ATCC 51299 (VRE)
Procedure: as §1

[5] = tested on: Listeria monocytogenes ATCC 19111; assay: MIC/MBC Gram-positive pathogens (Table 9); format: cell-based; details: ATCC19111; Table 9; Listeria monocytogenes ATCC 19111
Procedure: as §1

- MIC (MRSA (2658 RCMB)): 1.17 µg/mL (≈ 2.97 µM)
- MIC [2]: 8 µg/mL (≈ 20.3 µM)
- MIC (S. aureus ATCC 6538): 8 µg/mL (≈ 20.3 µM)
- MIC (MRSA NRS386): 8 µg/mL (≈ 20.3 µM)
- MIC (MRSA NRS385): 8 µg/mL (≈ 20.3 µM)
- MIC (MRSA NRS384 (USA300)): 8 µg/mL (≈ 20.3 µM)
- MIC (MRSA NRS123 (USA400)): 8 µg/mL (≈ 20.3 µM)
- MIC (MRSA NRS119): 8 µg/mL (≈ 20.3 µM)
- MIC (S. aureus NRS107): 8 µg/mL (≈ 20.3 µM)
- MIC (VRS10 (VRSA); read-out: MIC): 8 µg/mL (≈ 20.3 µM)
- MIC (VRS12 (VRSA); read-out: MIC): 8 µg/mL (≈ 20.3 µM)
- MIC [3]: 8 µg/mL (≈ 20.3 µM)
- MIC [4]: 8 µg/mL (≈ 20.3 µM)
- MIC [5]: 8 µg/mL (≈ 20.3 µM)
Compound: Cc1nc(-c2ccc(C(C)(C)C)cc2)sc1-c1ccnc(NC(=N)N(C)C)n1 [Compound 58, 3-(4-(2-(4-(tert-Butyl)phenyl)-4-methylthiazol-5-yl)pyrimidin-2-yl)-1,1-dimethylguanidine]
- tolerability to human colorectal cells, in words [1]: intolerable
- MBC (S. aureus ATCC 6538): 8 µg/mL (≈ 20.3 µM)
- MBC (MRSA NRS386): 8 µg/mL (≈ 20.3 µM)
- MBC (MRSA NRS385): 8 µg/mL (≈ 20.3 µM)
- MBC (MRSA NRS384 (USA300)): 8 µg/mL (≈ 20.3 µM)
- MBC (MRSA NRS123 (USA400)): 8 µg/mL (≈ 20.3 µM)
- MBC (MRSA NRS119): 8 µg/mL (≈ 20.3 µM)
- MBC (S. aureus NRS107): 8 µg/mL (≈ 20.3 µM)
- bactericidal / bacteriostatic behaviour in time-kill assay, in words (MRSA (USA300); MRSA): rapid bactericidal activity
- time to completely eradicate the MRSA inoculum (MRSA (USA300); t-butyl series): within two to four hours
- MBC (VRS10 (VRSA); read-out: MBC): 8 µg/mL (≈ 20.3 µM)
- MBC (VRS12 (VRSA); read-out: MBC): 8 µg/mL (≈ 20.3 µM)
- MBC [3]: 8 µg/mL (≈ 20.3 µM)
- MBC [5]: 8 µg/mL (≈ 20.3 µM)
